The conditions of series [1]: rat, microsomes.
Series [2] can be described thus: in vitro. To be noted: human, liver microsomes. Background: Liver microsomes are a subcellular fraction often used to study metabolism.
The nature of series [3]: in vitro. As to conditions: human, liver microsomes, F; call rule not given here.
A short description of series [4]: Cmax in ICR mouse at 10 mg/kg, po measured upto 24 hrs by LC-MS/MS analysis. Type of series: ADME, organism-based. As to conditions: in vivo.
Series [5] can be described thus: in vitro. To be noted: mouse, liver microsomes.
The nature of series [6]: in vitro. To be noted: rat, liver microsomes.
For series [7] the following is noted: mouse, microsomes.
The nature of series [8]: Drug distribution in ICR mouse lung at 10 mg/kg, po measured after 1 hr by LC-MS/MS analysis. Type of series: ADME, organism-based. As to conditions: in vivo.
Series [9] in a line: Drug distribution in ICR mouse colon at 10 mg/kg, po measured after 1 hr by LC-MS/MS analysis. To be noted: in vivo. In kind it is ADME, organism-based.
Series [10] can be described thus: Drug distribution in ICR mouse spleen at 10 mg/kg, po measured after 1 hr by LC-MS/MS analysis. To be noted: in vivo. Type of series: ADME, organism-based.
A short description of series [11]: Drug distribution in ICR mouse heart at 10 mg/kg, po measured after 1 hr by LC-MS/MS analysis. To be noted: in vivo. Type of series: ADME, organism-based.
Series [12] can be described thus: Half-life in ICR mouse at 10 mg/kg, po measured upto 24 hrs by LC-MS/MS analysis. Type of series: ADME, organism-based. To be noted: in vivo.
Series [13] in a line: Drug distribution in ICR mouse kidney at 10 mg/kg, po measured after 1 hr by LC-MS/MS analysis. As to conditions: in vivo. Type of series: ADME, organism-based.
The nature of series [14]: in vitro. To be noted: mouse, liver microsomes, F.
A short description of series [15]: Drug distribution in ICR mouse liver at 10 mg/kg, po measured after 1 hr by LC-MS/MS analysis. Type of series: ADME, organism-based. As to conditions: in vivo.
Series [16] in a line: Drug distribution in ICR mouse brain at 10 mg/kg, po measured after 1 hr by LC-MS/MS analysis. To be noted: in vivo. In kind it is ADME, organism-based.
The conditions of series [17]: human, microsomes.
Series [18] in a line: in vitro. As to conditions: rat, liver microsomes, F.
Series [19] is described as follows: Tmax in ICR mouse at 10 mg/kg, po measured upto 24 hrs by LC-MS/MS analysis. In kind it is ADME, organism-based. As to conditions: in vivo.
For series [20] the following is noted: human, microsomes. This is another data set of the same source.
The conditions of series [21]: rat, microsomes. This is another data set of the same source.
The conditions of series [22]: mouse, microsomes. This is another data set of the same source.

The results in this text go back to ChEMBL document CHEMBL5584242, “Discovery of pyridazinone derivatives bearing tetrahydroimidazo[1,2-a]pyrazine scaffold as potent inhibitors of transient receptor potential canonical 5 to ameliorate hypertension-induced renal injury in rats” (Eur J Med Chem, 2024).

The term half-life denotes how long it takes for the measured level to halve. As a reminder, the Cmax is the highest concentration seen after dosing. As usually defined, the Tmax is the time at which the peak concentration occurs.

Each structure is given as a SMILES string.

With `COC(c1ccc(F)cc1Cl)c1cnc2n1CCN(c1cn[nH]c(=O)c1Cl)C2` (stereo in doubt; 12), the CLH in series [1] is 97.3 mL/min/g; in series [7], 45 mL/min/g; in series [17], 17.7 mL/min/g. Also, the half-life in [2] (t1/2) was 119 min; in [5] (t1/2) it was 46.7 min; in [6] (t1/2) it was 21.6 min; in series [12], 118 min. Further, the Fh in series [3] is 52.5%; in series [14], 49.7%; in [18], 31.4%. The molecule further gave a Cmax in series [4] of 1150 ng/mL. In addition, the Drug uptake result in [8], in [9], in series [10], in [11], in series [13] and in series [15] was “Active” throughout. The Drug uptake result in series [16] is recorded as “Not Active”. Further, the Tmax in [19] was found to be 60 min.
As to `COC(c1ccc(F)cc1C(F)(F)F)c1cnc2n1CCN(c1cn[nH]c(=O)c1Cl)C2` (centres undefined), the CLH was 60.5 mL/min/g in series [1], 54.2 mL/min/g in series [7] and 50.6 mL/min/g in series [17]. Further, the figures for the half-life in series [2], in series [5] and in [6] were 41.5 min, 38.7 min and 34.7 min, respectively. The Fh in series [3] stood at 27.9%; in series [14], 45%; in series [18] it was 42.3%.
Turning to `COC(c1ccc(F)cc1Cl)c1cnc2n1CCN(c1cn[nH]c(=O)c1Cl)C2` (stereo in doubt; 12-2), the CLH in [1] was found to be 142 mL/min/g; in series [7], 41.8 mL/min/g; in series [17] it was 17.5 mL/min/g. In addition, the t1/2 worked out at 120 min in series [20], 14.8 min in series [21] and 50.3 min in [22].
